Test results reported in US7402576B2, “Phosphinic acid analogs of glutamate” (Givaudan SA, priority 2002, dated 2008).

Key:
[1] = biological target: T1, enzyme of Corynebacterium striatum Ax 20 (SEQ ID No. 1) (Corynebacterium striatum, UniProt Q8GGD4); test: Enzyme inhibition, cellular extract, Nα-lauroyl-L-glutamine cleavage, fluorescamine readout; type: biochemical, Corynebacterium striatum Ax 20 (DSM 14267); details: substrate Nα-lauroyl-L-glutamine 50 μM, 10 min preincubation at 37° C., 15 min incubation, pH 7
T1 construct: endogenous in cells; host or cells: Corynebacterium striatum Ax 20 (DSM 14267), wild-type cell extract
T1 sequence (Q8GGD4 2-400): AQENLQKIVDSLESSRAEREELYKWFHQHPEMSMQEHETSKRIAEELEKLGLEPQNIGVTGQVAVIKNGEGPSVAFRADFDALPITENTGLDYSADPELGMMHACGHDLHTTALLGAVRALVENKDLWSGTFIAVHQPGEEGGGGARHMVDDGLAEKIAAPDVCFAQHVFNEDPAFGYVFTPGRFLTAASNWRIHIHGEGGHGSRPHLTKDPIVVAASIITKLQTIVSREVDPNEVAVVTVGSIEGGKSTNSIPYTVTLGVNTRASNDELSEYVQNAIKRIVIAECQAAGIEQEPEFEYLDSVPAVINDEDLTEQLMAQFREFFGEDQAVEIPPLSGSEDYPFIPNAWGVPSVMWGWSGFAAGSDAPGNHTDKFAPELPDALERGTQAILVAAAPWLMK
Experimental: Cellular Extracts of Corynebacterium striatum Ax 20 (DSM 14267) are prepared by mechanical disruption and subsequent centrifugation.
The extract (50 μl ml corresponding to 0.2 ml initial cell culture) is added to 50 μl of Buffer A (Phosphate Buffer, pH 7). Various concentrations of the compounds of the present invention are added in a volume of 40 μl, and after 10 min preincubation at 37° C., the reaction is and amended with 10 μl of substrate (Nα-lauroyl-L-glutamine, final concentration 50 μM). The samples are incubated for 15 min and then the reaction is stopped by adding 75 μl of Fluorescamine (2.5 mM dissolved in Acetonitrile). The fluorescence resulting from derivatization of the released glutamine with fluorescamine is determined at an excitation wavelength of 381 nm and an emission wavelength of 470 nm.
By comparing the samples containing compounds of the present invention with control samples with enzyme and substrate only, the inhibition (%) is calculated. Alternatively, the same assay is made with a recombinantly formed enzyme produced with a strain containing an expression vector comprising a nucleic acid sequence encoding for the enzyme.

Corynebacterium Ax20 = test: Inhibition of the enzymatic activity in living cells, release of lauric acid by GC; type: cell-based, Corynebacterium striatum Ax 20; details: 0.2 μM compound, stationary phase living cells, substrate Nα-lauroyl-L-glutamine 1 mM, 1 h
Experimental: The uptake of the compounds in bacterial cells and the inhibition of the enzyme contained therein may be measured using an assay based on stationary-phase living cells. Thus, cells may be incubated along with inhibitory compound or compounds, and the substrate (i.e. the material found in sweat, which when cleaved by the enzyme forms the malodorous acids), and the release of acids may be measured at various inhibitor concentrations. By comparing IC50 values obtained with the living cells with the IC50 values obtained with the isolated enzyme, the ease of penetration of the compounds into the bacterial cells can be assessed.
In order to evaluate enzyme activity in intact cells, stationary phase living cells of Ax20 are harvested and resuspended in Buffer A to an optical density at 600 nm of 0.25. Inhibitory compounds are added at various concentrations, and after a preincubation of 15 min, the substrate (Nα-lauroyl-L-glutamine, 1 mM final concentration) is added. The samples are incubated for 1 h and then extracted with MTBE and HCl and analysed for released lauric acid using capillary GC. By comparing the samples containing compounds of the present invention with control samples with bacteria and substrate only, the inhibition (%) is calculated. By comparing the inhibitory capacity of the compounds on the isolated enzyme with the values obtained using intact cells, the relative uptake of the compounds by the cells can be assessed. From Table 2 it appears, that compounds of the present invention can cross the bacterial cell wall and cytoplasmatic membrane, and thus can have inhibitory activity in living cells.

Compound: CC(C)CCCC(C)CCP(=O)(O)CC(CCC(N)=O)C(=O)O (stereo not drawn) [Compound 5n, 4-Carbamoyl-2-[(3,7-dimethyl-octyl)-hydroxy-phosphinoylmethyl]-butyric acid]
- IC50 [1]: 9 nM
- % inhibition of release of fatty acids by Corynebacterium Ax20 at a concentration of 0.2 μM (Corynebacterium Ax20): 69.5%

Compound: CC(CCc1ccccc1)CCP(=O)(O)CC(CCC(N)=O)C(=O)O (stereo not drawn) [Compound 5c, 4-Carbamoyl-2-[hydroxy-(3-methyl-5-phenyl-pentyl)-phosphinoylmethyl]-butyric acid]
- IC50 [1]: 11.5 nM
- % inhibition of release of fatty acids by Corynebacterium Ax20 at a concentration of 0.2 μM (Corynebacterium Ax20): 70.5%

Compound: CCCCCCCCCCP(=O)(O)CC(CCC(N)=O)C(=O)O (stereo not drawn) [Compound 5a, 4-Carbamoyl-2-(decyl-hydroxy-phosphinoylmethyl)-butyric acid]
- IC50 [1]: 30.3 nM
- % inhibition of release of fatty acids by Corynebacterium Ax20 at a concentration of 0.2 μM (Corynebacterium Ax20): 60.9%

Compound: 4-Carbamoyl-2-(hydroxy-naphthalen-2-ylmethyl-phosphinoylmethyl)-butyric acid [Compound 5g]
- IC50 [1]: 138 nM

Compound: 4-Carbamoyl-2-[hydroxy-(3-phenyl-propyl)-phosphinoylmethyl]-butyric acid [Compound 5t]
- IC50 [1]: 125 nM

Compound: 4-Carbamoyl-2-[hydroxy-(4-isopropyl-cyclohex-1-enylmethyl)-phosphinoylmethyl]-butyric acid [Compound 5z]
- IC50 [1]: 32 nM

Compound: 4-Carbamoyl-2-[hydroxy-(4-phenyl-butyl)-phosphinoylmethyl]-butyric acid [Compound 5x]
- IC50 [1]: 40 nM

Compound: CCCCCCCCP(=O)(O)CC(CCC(N)=O)C(=O)O (stereo not drawn) [Compound 5y, 4-Carbamoyl-2-(hydroxy-octyl-phosphinoylmethyl)-butyric acid]
- IC50 [1]: 17.9 nM
- % inhibition of release of fatty acids by Corynebacterium Ax20 at a concentration of 0.2 μM (Corynebacterium Ax20): 64.9%
